Consider three molecules from patent publication US20070009886A1, “Carbohydrate-associated proteins” (Incyte Corporation, priority 2002, published 2007).

For experiment [1] the following is noted: intranasal, relative to hydrocortisone; cited from earlier work.
The conditions of experiment [2]: relative to progesterone; cited from earlier work.
For experiment [3], the system named is SEQ ID NO:37 expression in PBMCs. Nature of the experiment: Microarray analysis of SEQ ID NO:37 expression in cytokine-treated versus untreated PBMCs. It counts as cell-based, human. Particulars: 10 ng/ml recombinant IL-4, 2 hours, pooled PBMCs of 6 healthy donors. As for the experimental part:
Total RNA is isolated from tissue samples using the guanidinium thiocyanate method and poly(A)^+ RNA is purified using the oligo-(dT) cellulose method. Each poly(A)^+ RNA sample is reverse transcribed using MMLV reverse-transcriptase, 0.05 pg/μl oligo-(dT) primer (21mer), 1× first strand buffer, 0.03 units/μl RNase inhibitor, […], […], 500 μM dTTP, 40 μM dCTP, 40 μM dCTP-Cy3 (BDS) or dCTP-Cy5 (Amersham Biosciences). The reverse transcription reaction is performed in a […] containing 200 ng poly(A)^+ RNA with GEMBRIGHT kits (Incyte). Specific control poly(A)^+ RNAs are synthesized by in vitro transcription from non-coding yeast genomic DNA. […]
Sequences of the present invention are used to generate array elements. […] Array elements are amplified in thirty cycles of PCR from an initial quantity of 1-2 ng to a final quantity greater than 5 μg. […]
Reporter-labeled hybridization complexes are detected with a microscope equipped with an Innova 70 mixed gas 10 W laser (Coherent, Inc., Santa Clara Calif.) capable of generating spectral lines at 488 nm for excitation of Cy3 and at 632 nm for excitation of Cy5. […]
A grid is superimposed over the fluorescence signal image such that the signal from each spot is centered in each element of the grid. […]

Take `C[C@H]1C[C@H]2[C@@H]3CCC4=CC(=O)C=C[C@]4(C)[C@@]3(Cl)[C@@H](O)C[C@]2(C)[C@@]1(O)C(=O)CO` [beclomethasone]: the “anti-inflammatory and vasoconstrictive effects greater than those produced by hydrocortisone” value in experiment [1] was 5000 times.

Take “6α-methyl-17-hydroxyprogesterone [medroxyprogesterone]”: the “pharmacological activity greater than progesterone” value in experiment [2] was “about 15 times”.

B1: IL-4: a pleiotropic cytokine produced by activated T cells, mast cells, and basophils (protein, UniProt P05112 25-153, looked up)
Interleukin-4: HKCDITLQEIIKTLNSLTEQKTLCTELTVTDIFAASKNTTEKETFCRAATVLRQFYSHHEKDTRCLGATAQQFHRHKQLIRFLKRLDRNLWGLAGLNSCPVKEANQSTLENFLERLKTIMREKYSKCSS
As to B1, in experiment [3], the “expression of SEQ ID NO:37 increased in comparison to untreated PBMCs” value is recorded as “at least 2 fold”.
